Assays:
TEC = target: T1, TEC (Homo sapiens, UniProt P42680); test: Kinase activity assay, TEC
T1 sequence (P42680 1-631): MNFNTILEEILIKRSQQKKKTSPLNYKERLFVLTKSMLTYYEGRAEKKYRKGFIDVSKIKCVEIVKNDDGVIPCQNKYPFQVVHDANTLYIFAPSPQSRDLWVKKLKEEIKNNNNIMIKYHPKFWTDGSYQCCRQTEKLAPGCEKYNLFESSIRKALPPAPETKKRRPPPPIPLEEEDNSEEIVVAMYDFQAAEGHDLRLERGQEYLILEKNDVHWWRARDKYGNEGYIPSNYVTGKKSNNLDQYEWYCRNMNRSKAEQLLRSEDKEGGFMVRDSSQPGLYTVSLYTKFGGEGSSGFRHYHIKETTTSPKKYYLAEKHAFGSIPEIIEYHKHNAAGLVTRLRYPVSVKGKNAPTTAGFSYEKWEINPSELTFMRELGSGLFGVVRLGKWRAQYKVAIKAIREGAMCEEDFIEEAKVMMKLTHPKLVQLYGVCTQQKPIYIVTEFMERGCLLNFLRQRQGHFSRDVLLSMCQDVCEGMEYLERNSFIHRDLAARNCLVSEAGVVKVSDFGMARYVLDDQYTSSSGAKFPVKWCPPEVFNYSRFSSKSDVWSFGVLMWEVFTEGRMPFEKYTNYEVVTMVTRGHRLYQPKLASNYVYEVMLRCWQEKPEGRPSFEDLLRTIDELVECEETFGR

MAP4K4 = MAP4K4 (Homo sapiens, UniProt O95819); test: Kinase activity assay, MAP4K4
Kdr = Kdr (Homo sapiens, UniProt P35968); test: Kinase activity assay, Kdr
Kdr, sequence (P35968 20-1356): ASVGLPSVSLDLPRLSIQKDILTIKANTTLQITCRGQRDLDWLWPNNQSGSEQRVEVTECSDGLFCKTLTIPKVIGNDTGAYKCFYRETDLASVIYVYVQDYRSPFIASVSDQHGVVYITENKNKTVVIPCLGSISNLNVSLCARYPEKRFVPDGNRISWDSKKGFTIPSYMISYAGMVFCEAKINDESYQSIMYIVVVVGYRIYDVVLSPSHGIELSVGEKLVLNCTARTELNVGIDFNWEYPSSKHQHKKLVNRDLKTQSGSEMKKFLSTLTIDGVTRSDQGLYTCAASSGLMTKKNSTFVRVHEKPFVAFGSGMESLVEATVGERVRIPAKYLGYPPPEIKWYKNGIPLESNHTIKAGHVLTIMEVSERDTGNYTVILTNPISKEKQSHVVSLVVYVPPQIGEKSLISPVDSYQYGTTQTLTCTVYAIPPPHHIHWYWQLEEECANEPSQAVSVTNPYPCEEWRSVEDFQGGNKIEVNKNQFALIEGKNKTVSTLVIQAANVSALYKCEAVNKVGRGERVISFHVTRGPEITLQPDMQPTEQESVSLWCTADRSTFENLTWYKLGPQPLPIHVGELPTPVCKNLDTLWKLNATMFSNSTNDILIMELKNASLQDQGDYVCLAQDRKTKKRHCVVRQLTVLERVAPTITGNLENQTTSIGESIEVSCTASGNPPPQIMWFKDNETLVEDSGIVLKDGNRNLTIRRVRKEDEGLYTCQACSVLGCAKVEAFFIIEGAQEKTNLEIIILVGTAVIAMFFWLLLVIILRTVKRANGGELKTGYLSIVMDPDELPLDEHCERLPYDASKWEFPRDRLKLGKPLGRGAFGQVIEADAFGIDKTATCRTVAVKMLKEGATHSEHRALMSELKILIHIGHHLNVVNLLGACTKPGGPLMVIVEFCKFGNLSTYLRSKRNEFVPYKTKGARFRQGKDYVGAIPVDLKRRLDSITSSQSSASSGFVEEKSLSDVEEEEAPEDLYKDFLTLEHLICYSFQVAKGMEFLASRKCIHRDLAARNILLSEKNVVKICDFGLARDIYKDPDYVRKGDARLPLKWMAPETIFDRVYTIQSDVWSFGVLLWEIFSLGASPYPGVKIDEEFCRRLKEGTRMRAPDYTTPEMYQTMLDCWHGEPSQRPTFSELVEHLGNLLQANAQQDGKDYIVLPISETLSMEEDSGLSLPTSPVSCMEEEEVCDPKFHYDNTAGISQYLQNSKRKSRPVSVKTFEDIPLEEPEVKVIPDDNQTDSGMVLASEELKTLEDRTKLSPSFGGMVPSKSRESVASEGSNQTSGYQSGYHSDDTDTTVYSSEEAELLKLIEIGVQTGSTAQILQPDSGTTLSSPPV

Src = Src (Homo sapiens, UniProt P12931); test: Kinase activity assay, Src
B-Raf V600E = B-Raf V600E (Homo sapiens, UniProt P15056, V600E); test: Kinase activity assay, B-Raf V600E; type: biochemical; details: read-out: activity toward kinase B-Raf V600E, IC50
B-Raf V600E, sequence (P15056 whole entry V600E): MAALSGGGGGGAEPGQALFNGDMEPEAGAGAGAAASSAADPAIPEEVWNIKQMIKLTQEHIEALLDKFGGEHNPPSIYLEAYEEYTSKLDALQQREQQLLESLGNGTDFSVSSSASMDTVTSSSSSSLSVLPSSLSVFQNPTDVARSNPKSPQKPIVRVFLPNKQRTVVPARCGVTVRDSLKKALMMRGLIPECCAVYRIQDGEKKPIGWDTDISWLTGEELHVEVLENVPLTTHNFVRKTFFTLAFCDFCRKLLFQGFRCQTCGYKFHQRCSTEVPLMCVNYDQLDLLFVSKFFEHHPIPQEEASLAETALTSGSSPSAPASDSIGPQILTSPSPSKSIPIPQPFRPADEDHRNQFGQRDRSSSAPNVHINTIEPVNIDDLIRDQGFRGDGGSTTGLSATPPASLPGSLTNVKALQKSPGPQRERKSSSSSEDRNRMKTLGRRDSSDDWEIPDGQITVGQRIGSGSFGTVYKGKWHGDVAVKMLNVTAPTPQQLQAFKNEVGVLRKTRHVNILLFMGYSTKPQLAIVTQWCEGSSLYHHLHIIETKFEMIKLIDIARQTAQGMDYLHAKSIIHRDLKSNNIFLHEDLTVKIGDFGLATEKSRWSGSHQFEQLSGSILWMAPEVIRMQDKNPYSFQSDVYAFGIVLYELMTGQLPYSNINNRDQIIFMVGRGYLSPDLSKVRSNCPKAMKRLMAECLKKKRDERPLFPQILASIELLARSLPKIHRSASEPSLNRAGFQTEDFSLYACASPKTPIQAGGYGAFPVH

B-Raf = B-Raf (Homo sapiens, UniProt P15056); test: Kinase activity assay, B-Raf; type: biochemical; details: read-out: activity toward kinase B-Raf, IC50
B-Raf, sequence (P15056 whole entry): as the sequence (P15056 whole entry V600E) above, with E600V counted along it

C-Raf = C-Raf (Homo sapiens, UniProt P04049); test: Kinase activity assay, C-Raf
C-Raf, sequence (P04049 whole entry): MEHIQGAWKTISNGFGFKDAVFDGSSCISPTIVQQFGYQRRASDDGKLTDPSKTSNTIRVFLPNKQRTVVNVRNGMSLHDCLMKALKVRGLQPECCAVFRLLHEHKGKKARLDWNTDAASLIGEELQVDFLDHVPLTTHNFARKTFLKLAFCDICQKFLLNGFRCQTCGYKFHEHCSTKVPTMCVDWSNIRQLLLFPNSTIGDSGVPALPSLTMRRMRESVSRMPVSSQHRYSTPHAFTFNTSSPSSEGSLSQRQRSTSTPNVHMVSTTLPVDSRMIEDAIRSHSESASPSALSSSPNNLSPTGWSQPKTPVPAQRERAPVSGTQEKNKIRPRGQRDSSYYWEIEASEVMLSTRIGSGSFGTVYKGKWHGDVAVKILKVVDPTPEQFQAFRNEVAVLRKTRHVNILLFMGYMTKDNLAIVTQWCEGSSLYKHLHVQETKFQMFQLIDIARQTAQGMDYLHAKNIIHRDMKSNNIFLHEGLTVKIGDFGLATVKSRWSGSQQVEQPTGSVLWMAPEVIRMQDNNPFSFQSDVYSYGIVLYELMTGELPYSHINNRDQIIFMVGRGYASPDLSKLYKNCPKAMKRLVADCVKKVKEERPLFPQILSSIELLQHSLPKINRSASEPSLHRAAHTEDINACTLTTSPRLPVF

Kit = Kit (Homo sapiens, UniProt P10721); test: Kinase activity assay, Kit
Kit, sequence (P10721 26-976): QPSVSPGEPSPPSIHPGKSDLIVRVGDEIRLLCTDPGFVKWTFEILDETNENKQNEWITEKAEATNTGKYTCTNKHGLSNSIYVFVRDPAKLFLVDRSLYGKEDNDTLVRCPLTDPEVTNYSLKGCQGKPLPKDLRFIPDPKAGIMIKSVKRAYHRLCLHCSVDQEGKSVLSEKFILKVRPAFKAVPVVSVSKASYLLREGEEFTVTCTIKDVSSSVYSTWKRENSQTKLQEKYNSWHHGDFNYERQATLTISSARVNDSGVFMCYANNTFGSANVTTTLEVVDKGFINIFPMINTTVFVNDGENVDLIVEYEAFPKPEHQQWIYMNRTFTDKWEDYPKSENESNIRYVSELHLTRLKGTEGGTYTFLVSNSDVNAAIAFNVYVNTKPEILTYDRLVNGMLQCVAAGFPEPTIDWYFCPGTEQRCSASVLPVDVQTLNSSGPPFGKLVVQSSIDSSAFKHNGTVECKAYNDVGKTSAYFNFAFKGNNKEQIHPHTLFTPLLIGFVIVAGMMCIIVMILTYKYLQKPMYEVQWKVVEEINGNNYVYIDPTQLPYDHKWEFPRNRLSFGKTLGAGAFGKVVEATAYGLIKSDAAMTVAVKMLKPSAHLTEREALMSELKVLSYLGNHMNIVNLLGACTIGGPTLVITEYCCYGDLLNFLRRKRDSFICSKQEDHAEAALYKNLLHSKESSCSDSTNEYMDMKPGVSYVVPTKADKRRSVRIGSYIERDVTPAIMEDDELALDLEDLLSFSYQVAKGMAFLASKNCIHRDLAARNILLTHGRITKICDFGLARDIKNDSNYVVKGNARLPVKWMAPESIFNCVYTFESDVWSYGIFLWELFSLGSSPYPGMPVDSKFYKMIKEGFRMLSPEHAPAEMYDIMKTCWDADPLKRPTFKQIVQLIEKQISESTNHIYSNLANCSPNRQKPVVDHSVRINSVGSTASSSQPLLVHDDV

Fms = Fms (Homo sapiens, UniProt P07333); test: Kinase activity assay, Fms
Fms, sequence (P07333 20-972): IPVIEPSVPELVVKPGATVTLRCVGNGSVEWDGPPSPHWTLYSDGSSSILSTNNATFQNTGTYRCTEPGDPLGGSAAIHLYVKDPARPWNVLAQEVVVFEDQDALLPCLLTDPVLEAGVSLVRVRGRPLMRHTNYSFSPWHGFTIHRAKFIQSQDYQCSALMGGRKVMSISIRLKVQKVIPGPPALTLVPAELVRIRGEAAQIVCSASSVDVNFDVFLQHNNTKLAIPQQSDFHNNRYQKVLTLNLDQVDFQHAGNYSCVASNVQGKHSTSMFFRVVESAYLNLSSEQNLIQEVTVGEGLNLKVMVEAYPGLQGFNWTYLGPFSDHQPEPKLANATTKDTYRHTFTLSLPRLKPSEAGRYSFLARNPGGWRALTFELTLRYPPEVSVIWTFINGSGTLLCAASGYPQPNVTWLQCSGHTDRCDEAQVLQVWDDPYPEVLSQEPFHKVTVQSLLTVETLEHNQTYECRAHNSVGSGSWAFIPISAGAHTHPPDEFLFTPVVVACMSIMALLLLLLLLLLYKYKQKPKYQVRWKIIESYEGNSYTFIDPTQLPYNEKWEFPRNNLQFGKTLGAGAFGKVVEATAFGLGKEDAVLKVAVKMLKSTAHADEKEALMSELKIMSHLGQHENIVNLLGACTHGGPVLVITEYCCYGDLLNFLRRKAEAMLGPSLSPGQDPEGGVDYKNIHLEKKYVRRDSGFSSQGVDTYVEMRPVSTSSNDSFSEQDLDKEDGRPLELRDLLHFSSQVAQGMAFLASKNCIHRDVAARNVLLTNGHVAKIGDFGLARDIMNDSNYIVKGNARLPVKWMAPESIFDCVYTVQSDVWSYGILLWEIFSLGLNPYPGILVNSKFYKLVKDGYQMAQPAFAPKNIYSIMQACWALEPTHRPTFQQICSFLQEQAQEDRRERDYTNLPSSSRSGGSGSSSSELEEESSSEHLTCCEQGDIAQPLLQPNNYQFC

Measured: IC50

COc1ccnc2[nH]cc(C(=O)c3c(F)ccc(NS(=O)(=O)c4ccccc4F)c3F)c12 [P-2021, N-[2,4-Difluoro-3-(4-methoxy-1H-pyrrolo[2,3-b]pyridine-3-carbonyl)-phenyl]-2-fluoro-benzenesulfonamide]
not listed: Fms
≤ 10 µM: all other assays above

COc1ccnc2[nH]cc(C(=O)c3c(F)ccc(NS(=O)(=O)c4cccc(F)c4)c3F)c12 [P-2023, N-[2,4-Difluoro-3-(4-methoxy-1H-pyrrolo[2,3-b]pyridine-3-carbonyl)-phenyl]-3-fluoro-benzenesulfonamide]
not listed: Fms
≤ 10 µM: all other assays above

Cc1cnc2[nH]cc(C(=O)c3c(F)ccc(NS(=O)(=O)c4c(F)cccc4F)c3F)c2c1 [P-2024, N-[2,4-Difluoro-3-(5-methyl-1H-pyrrolo[2,3-b]pyridine-3-carbonyl)-phenyl]-2,6-difluoro-benzenesulfonamide]
not listed: Fms
≤ 10 µM: all other assays above

N#Cc1cnc2[nH]cc(C(=O)c3c(F)ccc(NS(=O)(=O)c4c(F)cccc4F)c3F)c2c1 [P-2029, N-[3-(5-Cyano-1H-pyrrolo[2,3-b]pyridine-3-carbonyl)-2,4-difluoro-phenyl]-2,6-difluoro-benzenesulfonamide]
not listed: Fms
≤ 10 µM: all other assays above

Cc1cnc2[nH]cc(C(=O)c3c(F)ccc(NS(=O)(=O)c4ccccn4)c3F)c2c1 [P-2070, Pyridine-2-sulfonic acid [2,4-difluoro-3-(5-methyl-1H-pyrrolo[2,3-b]pyridine-3-carbonyl)-phenyl]-amide]
not listed: Kit | Fms
≤ 10 µM: all other assays above

O=C(c1c(F)ccc(NS(=O)(=O)c2cccnc2)c1F)c1c[nH]c2ncc(Cl)cc12 [P-2071, Pyridine-3-sulfonic acid [3-(5-chloro-1H-pyrrolo[2,3-b]pyridine-3-carbonyl)-2,4-difluoro-phenyl]-amide]
≤ 10 µM: TEC | MAP4K4 | Src | Kit

O=C(c1cc(NS(=O)(=O)c2cccc(Cl)c2)ccc1F)c1c[nH]c2ncc(Cl)cc12 [P-2111, 3-Chloro-N-[3-(5-chloro-1H-pyrrolo[2,3-b]pyridine-3-carbonyl)-4-fluoro-phenyl]-benzenesulfonamide]
≤ 10 µM: TEC | Kdr | Fms | B-Raf V600E | Kit

O=C(c1cc(NS(=O)(=O)c2cccc(Cl)c2)ccc1F)c1c[nH]c2ncccc12 [P-2118, 3-Chloro-N-[4-fluoro-3-(1H-pyrrolo[2,3-b]pyridine-3-carbonyl)-phenyl]-benzenesulfonamide]
≤ 10 µM: TEC | Kdr | Fms | Kit

Cn1cc(-c2cnc3[nH]cc(C(=O)c4cccc(NS(=O)(=O)c5ccc(OC(F)(F)F)cc5)c4)c3c2)cn1 [P-2132, N-{3-[5-(1-Methyl-1H-pyrazol-4-yl)-1H-pyrrolo[2,3-b]pyridine-3-carbonyl]-phenyl}-4-trifluoromethoxy-benzenesulfonamide]
≤ 10 µM: TEC | Kdr | Fms | B-Raf V600E | Kit

Cn1cc(-c2cnc3[nH]cc(C(=O)c4cccc(NS(=O)(=O)c5cccc(OC(F)(F)F)c5)c4)c3c2)cn1 [P-2133, N-{3-[5-(1-Methyl-1H-pyrazol-4-yl)-1H-pyrrolo[2,3-b]pyridine-3-carbonyl]-phenyl}-3-trifluoromethoxy-benzenesulfonamide]
≤ 10 µM: TEC | Kdr | Fms | B-Raf V600E | Kit

Cn1cc(-c2cnc3[nH]cc(C(=O)c4cccc(NS(=O)(=O)c5ccc(C(F)(F)F)cc5)c4)c3c2)cn1 [P-2135, N-{3-[5-(1-Methyl-1H-pyrazol-4-yl)-1H-pyrrolo[2,3-b]pyridine-3-carbonyl]-phenyl}-4-trifluoromethyl-benzenesulfonamide]
≤ 10 µM: TEC | Kdr | Fms | B-Raf V600E | Kit

CCCS(=O)(=O)Nc1ccc(F)c(C(=O)c2c[nH]c3ncc(-c4ccc(O)cc4)cc23)c1F [P-2198, Propane-1-sulfonic acid {2,4-difluoro-3-[5-(4-hydroxy-phenyl)-1H-pyrrolo[2,3-b]pyridine-3-carbonyl]-phenyl}-amide]
≤ 10 µM: TEC | Fms | B-Raf V600E | B-Raf

CCCS(=O)(=O)Nc1ccc(F)c(C(=O)c2c[nH]c3ncc(C(=O)OCC)cc23)c1F [P-2207, 3-[2,6-Difluoro-3-(propane-1-sulfonylamino)-benzoyl]-1H-pyrrolo[2,3-b]pyridine-5-carboxylic acid ethyl ester]
not listed: MAP4K4 | Src | C-Raf
≤ 10 µM: all other assays above

CCCS(=O)(=O)Nc1ccc(F)c(C(=O)c2c[nH]c3ncc(-c4ccccc4Cl)cc23)c1F [P-2212, Propane-1-sulfonic acid {3-[5-(2-chloro-phenyl)-1H-pyrrolo[2,3-b]pyridine-3-carbonyl]-2,4-difluoro-phenyl}-amide]
≤ 10 µM: TEC | Kdr | Fms | B-Raf V600E | B-Raf

CCCC(C)S(=O)(=O)Nc1ccc(F)c(C(=O)c2c[nH]c3ncc(OC)cc23)c1F (centres unmarked) [P-2309, Pentane-2-sulfonic acid [2,4-difluoro-3-(5-methoxy-1H-pyrrolo[2,3-b]pyridine-3-carbonyl)-phenyl]-amide]
not listed: B-Raf | C-Raf | Fms
≤ 10 µM: all other assays above

CCC(C)S(=O)(=O)Nc1ccc(F)c(C(=O)c2c[nH]c3ncc(C)cc23)c1F (centres unmarked) [P-2312, Butane-2-sulfonic acid [2,4-difluoro-3-(5-methyl-1H-pyrrolo[2,3-b]pyridine-3-carbonyl)-phenyl]-amide]
not listed: B-Raf | Kit | Fms
≤ 10 µM: all other assays above

N#Cc1cnc2[nH]cc(C(=O)c3c(F)ccc(NS(=O)(=O)C4CCCC4)c3F)c2c1 [P-2359, Cyclopentanesulfonic acid [3-(5-cyano-1H-pyrrolo[2,3-b]pyridine-3-carbonyl)-2,4-difluoro-phenyl]-amide]
not listed: MAP4K4 | Fms
≤ 10 µM: all other assays above

Cc1cnc2[nH]cc(C(=O)c3c(F)ccc(NS(=O)(=O)N(C)C)c3F)c2c1 [P-2382, N,N-dimethylamino-sulfonic acid [2,4-difluoro-3-(5-methyl-1H-pyrrolo[2,3-b]pyridine-3-carbonyl)-phenyl]-amide]
not listed: Kit | Fms
≤ 10 µM: all other assays above

O=C(c1cc(NS(=O)(=O)C2CCCCC2)ccc1F)c1c[nH]c2ncccc12 [P-2441, Cyclohexanesulfonic acid [4-fluoro-3-(1H-pyrrolo[2,3-b]pyridine-3-carbonyl)-phenyl]-amide]
≤ 10 µM: TEC | Fms | Kit

O=C(c1cc(NS(=O)(=O)C2CCCC2)ccc1F)c1c[nH]c2ncccc12 [P-2442, Cyclopentanesulfonic acid [4-fluoro-3-(1H-pyrrolo[2,3-b]pyridine-3-carbonyl)-phenyl]-amide]
≤ 10 µM: TEC | Kdr | Fms | B-Raf V600E

CCCS(=O)(=O)Nc1cccc(S(=O)(=O)c2c[nH]c3ncc(Cl)cc23)c1 [P-2467, Propane-1-sulfonic acid [3-(5-chloro-1H-pyrrolo[2,3-b]pyridine-3-sulfonyl)-phenyl]-amide]
≤ 10 µM: TEC | MAP4K4 | B-Raf V600E | C-Raf
